PubChem BioAssay (NCI)
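Five compound concentrations were applied to cells in 96-well plates for 48 hours; endpoints were derived by simple linear interpolation of the resulting dose-response curve. TGI denotes the concentration required for complete inhibition of growth.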 Where a SMILES comes first, the peptide text is derived from it. [ ]: non-standard residue; d: D form. The star is where a group is joined. ξ: configuration not given here. ξW = NC(Cc1c[nH]c2ccccc12)C(=O)O; X30 = O=C(O)[C@H]1CCC[C@H]1N*; ξF = NC(Cc1ccccc1)C(=O)O; Boc = CC(C)(C)OC(=O)*; ξK = NCCCCC(N)C(=O)O; ξT = CC(O)C(N)C(=O)O; OBn = c1ccc(CO*)cc1; tBu = CC(C)(C)*

Assays:
Experiment in all cases: growth of human tumour cells (NCI), 48 h
CCRF-CEM leukemia = system: CCRF-CEM leukemia
SR leukemia = system: SR leukemia
NCI-H522 lung = system: NCI-H522 lung
NCI-H460 lung = system: NCI-H460 lung
HOP-62 NSCLC = system: HOP-62 NSCLC
MOLT-4 leukemia = system: MOLT-4 leukemia
MDA-MB-435 = system: MDA-MB-435
OVCAR-5 ovarian = system: OVCAR-5 ovarian
NCI-H226 lung = system: NCI-H226 lung
OVCAR-8 ovarian = system: OVCAR-8 ovarian
SN12C renal = system: SN12C renal
MDA-N = system: MDA-N
UO-31 renal = system: UO-31 renal
DU-145 prostate = system: DU-145 prostate
EKVX NSCLC = system: EKVX NSCLC
HS 578T breast = system: HS 578T breast
SF-539 CNS = system: SF-539 CNS
T-47D breast = system: T-47D breast
SF-268 CNS = system: SF-268 CNS
OVCAR-4 ovarian = system: OVCAR-4 ovarian

Structure (SMILES): CC(C)C(NC(=O)CNC(=O)C1CCCN1C(=O)C(NC(=O)OC(C)(C)C)C(C)C)C(=O)NCC(=O)OCc1ccccc1 (stereo not given) (Boc-VPGVG-OBn; configuration not given here)
- TGI (CCRF-CEM leukemia): > 100 µM
- TGI (SR leukemia): > 100 µM
- TGI (NCI-H522 lung): > 100 µM
- TGI (NCI-H460 lung): > 100 µM
- TGI (HOP-62 NSCLC): > 100 µM
- TGI (MOLT-4 leukemia): > 100 µM
- TGI (MDA-MB-435): > 100 µM
- TGI (OVCAR-5 ovarian): > 100 µM
- TGI (NCI-H226 lung): > 100 µM
- TGI (OVCAR-8 ovarian): > 100 µM
- TGI (SN12C renal): > 100 µM
- TGI (MDA-N): > 100 µM
- TGI (UO-31 renal): > 100 µM
- TGI (DU-145 prostate): > 100 µM
- TGI (EKVX NSCLC): > 100 µM
- TGI (HS 578T breast): > 100 µM
- TGI (SF-539 CNS): > 100 µM
- TGI (T-47D breast): > 100 µM
- TGI (SF-268 CNS): > 100 µM
- TGI (OVCAR-4 ovarian): > 100 µM

Structure (SMILES): CC(OC(C)(C)C)C(NC(=O)C(CCCCNC(=O)OC(C)(C)C)NC(=O)C(Cc1c[nH]c2ccccc12)NC(=O)C(N)Cc1ccccc1)C(=O)NC(Cc1ccccc1)C(=O)N[C@@H]1CCC[C@@H]1C(=O)O (stereo not given in full) (H-[ξF][ξW][ξK](Boc)[ξT](tBu)[ξF]-X30)
- TGI (CCRF-CEM leukemia): 92.4 µM
- TGI (SR leukemia): > 100 µM
- TGI (NCI-H522 lung): 41 µM
- TGI (NCI-H460 lung): > 100 µM
- TGI (HOP-62 NSCLC): > 100 µM
- TGI (MOLT-4 leukemia): > 100 µM
- TGI (MDA-MB-435): > 100 µM
- TGI (OVCAR-5 ovarian): 40.6 µM
- TGI (NCI-H226 lung): 52.4 µM
- TGI (OVCAR-8 ovarian): > 100 µM
- TGI (SN12C renal): 67.2 µM
- TGI (MDA-N): > 100 µM
- TGI (UO-31 renal): > 100 µM
- TGI (DU-145 prostate): > 100 µM
- TGI (EKVX NSCLC): > 100 µM
- TGI (HS 578T breast): 50.6 µM
- TGI (SF-539 CNS): 36.5 µM
- TGI (T-47D breast): > 100 µM
- TGI (SF-268 CNS): > 100 µM
- TGI (OVCAR-4 ovarian): > 100 µM

Structure (SMILES): CCCCCCCCCCCCCCCCNc1ccc2c(c1)OCCOCCOCCOCCO2
- TGI (CCRF-CEM leukemia): 7.62 µM
- TGI (SR leukemia): 8.14 µM
- TGI (NCI-H522 lung): 8.68 µM
- TGI (NCI-H460 lung): 10.7 µM
- TGI (HOP-62 NSCLC): 7.28 µM
- TGI (MOLT-4 leukemia): 6.19 µM
- TGI (MDA-MB-435): 11.1 µM
- TGI (OVCAR-5 ovarian): 14.2 µM
- TGI (NCI-H226 lung): 7.07 µM
- TGI (OVCAR-8 ovarian): 10.8 µM
- TGI (SN12C renal): 10.5 µM
- TGI (MDA-N): 12.8 µM
- TGI (UO-31 renal): 8.88 µM
- TGI (DU-145 prostate): 15.3 µM
- TGI (EKVX NSCLC): 14.4 µM
- TGI (HS 578T breast): 9.1 µM
- TGI (SF-539 CNS): 9.43 µM
- TGI (T-47D breast): 9.2 µM
- TGI (SF-268 CNS): 11.9 µM
- TGI (OVCAR-4 ovarian): 17.6 µM

Structure (SMILES): Nc1ccc(-c2nc3ccccc3s2)cc1I
- TGI (CCRF-CEM leukemia): > 46.4 µM
- TGI (SR leukemia): > 100 µM
- TGI (NCI-H522 lung): > 100 µM
- TGI (NCI-H460 lung): > 100 µM
- TGI (HOP-62 NSCLC): > 100 µM
- TGI (MOLT-4 leukemia): > 46.4 µM
- TGI (MDA-MB-435): > 100 µM
- TGI (OVCAR-5 ovarian): > 100 µM
- TGI (NCI-H226 lung): > 100 µM
- TGI (OVCAR-8 ovarian): > 100 µM
- TGI (SN12C renal): > 100 µM
- TGI (MDA-N): > 100 µM
- TGI (UO-31 renal): > 100 µM
- TGI (DU-145 prostate): > 100 µM
- TGI (EKVX NSCLC): > 100 µM
- TGI (HS 578T breast): > 100 µM
- TGI (SF-539 CNS): > 100 µM
- TGI (T-47D breast): > 100 µM
- TGI (SF-268 CNS): > 100 µM
- TGI (OVCAR-4 ovarian): > 100 µM

Structure (SMILES): O=c1[nH]cnc2c1ncn2C1SC(CO)C(O)C1O (stereo not given)
- TGI (CCRF-CEM leukemia): > 100 µM
- TGI (SR leukemia): > 100 µM
- TGI (NCI-H522 lung): > 100 µM
- TGI (NCI-H460 lung): > 100 µM
- TGI (HOP-62 NSCLC): > 100 µM
- TGI (MOLT-4 leukemia): > 100 µM
- TGI (MDA-MB-435): > 100 µM
- TGI (OVCAR-5 ovarian): > 100 µM
- TGI (NCI-H226 lung): > 100 µM
- TGI (OVCAR-8 ovarian): > 100 µM
- TGI (SN12C renal): > 100 µM
- TGI (MDA-N): > 100 µM
- TGI (UO-31 renal): > 100 µM
- TGI (DU-145 prostate): > 100 µM
- TGI (EKVX NSCLC): > 100 µM
- TGI (HS 578T breast): > 100 µM
- TGI (SF-539 CNS): > 100 µM
- TGI (T-47D breast): > 100 µM
- TGI (SF-268 CNS): > 100 µM
- TGI (OVCAR-4 ovarian): > 100 µM
